“And” between values parts separate entries of the source, which are not always exact repeats. Identical values can stand only once.
Tests used:
[1] = for surface tension liquid-gas: Pendant drop shape; for mass density: 101.33 kPa, Liquid
[2] = xn = mol fraction of the nth substance listed; settings: Pendant drop shape

CCOC(C)OCC [1,1-diethoxyethane]
[1]
Settings	mass density [kg/m3]	surface tension liquid-gas [mN/m]
298.15 K	821.96	20.88
308.15 K	811.48	19.89
313.15 K	806.18	19.42

CCOC(C)OCC [1,1-diethoxyethane] + Cc1cc(C)cc(C)c1
[2]
Settings	surface tension liquid-gas [mN/m]
298.15 K, x1 = 0.0491	27.45
298.15 K, x1 = 0.1013	26.91
298.15 K, x1 = 0.1538	26.36
298.15 K, x1 = 0.1996	25.83
298.15 K, x1 = 0.2501	25.34
298.15 K, x1 = 0.3009	24.81
298.15 K, x1 = 0.3501	24.37
298.15 K, x1 = 0.4067	23.83
298.15 K, x1 = 0.4506	23.45
298.15 K, x1 = 0.4997	23.04
298.15 K, x1 = 0.5523	22.62
298.15 K, x1 = 0.601	22.26
298.15 K, x1 = 0.6508	21.92
298.15 K, x1 = 0.7006	21.64
298.15 K, x1 = 0.7507	21.43
298.15 K, x1 = 0.8014	21.2
298.15 K, x1 = 0.851	21.09
298.15 K, x1 = 0.8994	21.02
298.15 K, x1 = 0.9487	20.95
298.15 K, x1 = 1	20.88
308.15 K, x1 = 0.0488	26.55
308.15 K, x1 = 0.1009	25.97
308.15 K, x1 = 0.1495	25.4
308.15 K, x1 = 0.1991	24.86
308.15 K, x1 = 0.2498	24.32
308.15 K, x1 = 0.3014	23.84
308.15 K, x1 = 0.3503	23.35
308.15 K, x1 = 0.4004	22.89
308.15 K, x1 = 0.4508	22.44
308.15 K, x1 = 0.5011	22.03
308.15 K, x1 = 0.5503	21.61
308.15 K, x1 = 0.5979	21.25
308.15 K, x1 = 0.6511	20.9
308.15 K, x1 = 0.6997	20.62
308.15 K, x1 = 0.7503	20.33
308.15 K, x1 = 0.7977	20.15
308.15 K, x1 = 0.8462	20.04
308.15 K, x1 = 0.8993	19.95
308.15 K, x1 = 0.9418	19.93
308.15 K, x1 = 1	19.89
313.15 K, x1 = 0.0487	26.09
313.15 K, x1 = 0.0991	25.49
313.15 K, x1 = 0.1507	24.91
313.15 K, x1 = 0.1999	24.37
313.15 K, x1 = 0.2468	23.86
313.15 K, x1 = 0.3001	23.34
313.15 K, x1 = 0.3501	22.83
313.15 K, x1 = 0.4008	22.38
313.15 K, x1 = 0.4502	21.95
313.15 K, x1 = 0.5	21.54
313.15 K, x1 = 0.5495	21.12
313.15 K, x1 = 0.6005	20.73
313.15 K, x1 = 0.6506	20.4
313.15 K, x1 = 0.7005	20.11
313.15 K, x1 = 0.7514	19.8
313.15 K, x1 = 0.7996	19.63
313.15 K, x1 = 0.8494	19.52
313.15 K, x1 = 0.9003	19.48
313.15 K, x1 = 0.9498	19.44
313.15 K, x1 = 1	19.42

CCOC(C)OCC [1,1-diethoxyethane] + Cc1ccc(C)c(C)c1
[2]
Settings	surface tension liquid-gas [mN/m]
298.15 K, x1 = 0.05	28.51
298.15 K, x1 = 0.1	27.76
298.15 K, x1 = 0.151	26.97
298.15 K, x1 = 0.2005	26.29
298.15 K, x1 = 0.2511	25.71
298.15 K, x1 = 0.3005	25.14
298.15 K, x1 = 0.3526	24.6
298.15 K, x1 = 0.401	24.16
298.15 K, x1 = 0.4538	23.73
298.15 K, x1 = 0.5034	23.35
298.15 K, x1 = 0.5513	23.01
298.15 K, x1 = 0.5998	22.7
298.15 K, x1 = 0.6519	22.41
298.15 K, x1 = 0.7012	22.08
298.15 K, x1 = 0.7499	21.85
298.15 K, x1 = 0.8003	21.58
298.15 K, x1 = 0.8491	21.42
298.15 K, x1 = 0.9	21.21
298.15 K, x1 = 0.9399	21.09
298.15 K, x1 = 1	20.88
308.15 K, x1 = 0.0488	27.35
308.15 K, x1 = 0.0993	26.53
308.15 K, x1 = 0.1486	25.79
308.15 K, x1 = 0.2003	25.09
308.15 K, x1 = 0.2497	24.51
308.15 K, x1 = 0.3001	23.95
308.15 K, x1 = 0.3499	23.47
308.15 K, x1 = 0.4004	23.02
308.15 K, x1 = 0.4534	22.6
308.15 K, x1 = 0.5016	22.23
308.15 K, x1 = 0.55	21.9
308.15 K, x1 = 0.6017	21.54
308.15 K, x1 = 0.6514	21.24
308.15 K, x1 = 0.7003	20.96
308.15 K, x1 = 0.7498	20.72
308.15 K, x1 = 0.8007	20.46
308.15 K, x1 = 0.8502	20.28
308.15 K, x1 = 0.8989	20.09
308.15 K, x1 = 0.9488	19.95
308.15 K, x1 = 1	19.89
313.15 K, x1 = 0.0498	26.73
313.15 K, x1 = 0.0992	25.91
313.15 K, x1 = 0.1501	25.09
313.15 K, x1 = 0.2003	24.46
313.15 K, x1 = 0.2496	23.86
313.15 K, x1 = 0.3027	23.34
313.15 K, x1 = 0.3505	22.89
313.15 K, x1 = 0.4	22.43
313.15 K, x1 = 0.4501	22.05
313.15 K, x1 = 0.499	21.67
313.15 K, x1 = 0.5463	21.37
313.15 K, x1 = 0.6011	20.95
313.15 K, x1 = 0.6503	20.68
313.15 K, x1 = 0.7002	20.4
313.15 K, x1 = 0.7491	20.14
313.15 K, x1 = 0.7998	19.91
313.15 K, x1 = 0.8507	19.72
313.15 K, x1 = 0.899	19.53
313.15 K, x1 = 0.9497	19.45
313.15 K, x1 = 1	19.42

Cc1ccc(C)c(C)c1 [1,2,4-trimethylbenzene]
[1]
Settings	mass density [kg/m3]	surface tension liquid-gas
298.15 K	871.71	29.3 mN/m
308.15 K	863.68	28.24 mN/m
313.15 K	859.58	27.67 mN/m and 27.71 mN/m

Cc1ccc(C)c(C)c1 [1,2,4-trimethylbenzene] + CCOC(C)OCC
[2], x2 = 0
Settings	surface tension liquid-gas [mN/m]
298.15 K	29.3
308.15 K	28.24
313.15 K	27.71

Cc1ccc(C)c(C)c1 [1,2,4-trimethylbenzene] + COC(C)(C)OC
[2], x2 = 0
Settings	surface tension liquid-gas [mN/m]
298.15 K	29.3
308.15 K	28.24
313.15 K	27.71
